The values that follow come from patent US20190016689A1, “NOVEL FLUORINATED QUINAZOLINE DERIVATIVES AS EGFR INHIBITORS” (TRILLIUM THERAPEUTICS INC., priority 2016, published 2019).

In general, GI50 refers to the concentration giving 50% growth inhibition. Low values mean greater sensitivity of the cells, high ones lower sensitivity of the cells. For orientation: half-life means how long it takes for the measured level to halve. Lower therefore signals rapid decline. One may read the microsomal CLint as the rate of metabolic loss divided by the concentration. Low readings indicate greater metabolic stability, high ones faster metabolism.

Data set [1] has as its system MDA-MB-435. Description: NCI screening panel (SRB). The class given is cell-based. To be noted: Homo sapiens, MDA-MB-435 (Melanoma), 48 h; for CC50: read-out: LC50 (the source's name).
Data set [2] deals with SF-268. The experiment in a line: NCI screening panel (SRB). To be noted: Homo sapiens, SF-268 (CNS), 48 h; for CC50: read-out: LC50 (the source's name). The data set is classed as cell-based.
Data set [3] concerns HCT-116. Description: NCI screening panel (SRB). The settings on record: Homo sapiens, HCT-116 (Colon), 48 h; for CC50: read-out: LC50 (the source's name). The data set is classed as cell-based.
The subject of data set [4] is LOXIMVI. Description: NCI screening panel (SRB). The class given is cell-based. To be noted: Homo sapiens, LOX IMVI, LOXIMVI (Melanoma), 48 h; for CC50: read-out: LC50 (the source's name).
Data set [5] can be described thus: Microsomal stability. The settings on record: Mouse liver microsomes with NADPH; for Remaining Percentage (%) after 60 min: 1 μM; for half-life at 1 μM / microsomal CLint at 1 μM: male, CD-1. The data set is classed as in vitro ADME, mouse (CD-1, male). The method, then: Working stocks were initially diluted to a concentration of 40.0 μM in 0.1 M potassium phosphate buffer before addition to the reaction vials. Pooled mouse (CD-1, male) or human (50 donors) liver microsomes were utilized at a final concentration of 0.5 mg/ml. […] Reactions were carried out at 37° C. in a shaker, and the final concentration of DMSO was kept constant at 0.01%. The final volume for each reaction was 100 μL, which includes the addition of an NADPH-Regeneration solution (NRS) mix. This NRS mix is comprised of glucose 6-phosphate dehydrogenase (0.4 U/mL), NADP+(1.3 mM), MgCl2 (3.3 mM), and glucose 6-phosphate (3.3 mM) in assay mixtures. […] Samples were then centrifuged at 4,000 rpm for 10 minutes to remove debris and precipitated protein. Approximately 150 μL of supernatant was subsequently transferred to a new 96 well microplate for LC/MS analysis.
Narrow-window mass extraction LC/MS analysis was performed for all samples using a Waters Xevo quadrupole time-of-flight (QTof) mass spectrometer and an ACQUITY UPLC system, to determine relative peak areas of parent compound.

Data set [6] has as its system M14. Description: cells. To be noted: Homo sapiens, M14, 48 h; for CC50: read-out: LC50.
Data set [7] has as its target EGFR (L858R) (Homo sapiens, UniProt P00533, L858R). Description: Kinase assays, selectivity panel (qPCR). The settings on record: read-out: % Control @ 300 nM. On the technique in general: Quantitative PCR measures a nucleic acid by following its amplification.
Data set [8] deals with BT-549. Description: NCI screening panel (SRB). To be noted: Homo sapiens, BT-549 (Breast), 48 h; for CC50: read-out: LC50 (the source's name). The class given is cell-based.
Data set [9] deals with T-47D. Description: NCI screening panel (SRB). The data set is classed as cell-based. To be noted: Homo sapiens, T47D, T-47D (Breast), 48 h; for CC50: read-out: LC50 (the source's name).
Data set [10] has as its target T1, EPHA1 (Homo sapiens, UniProt P21709).
T1 construct: T7 phage fusion (kinase-tagged phage) or DNA tag for qPCR; made in house; host or cells: E. coli BL21-derived host (T7 phage) or HEK-293
Description: Binding to EPHA (kinase competition binding, qPCR). The settings on record: 300 nM, read-out: % Control @ 300 nM. The method, then:
(§1) The lysates were centrifuged and filtered to remove cell debris. […] All reactions were performed in polystyrene 96-well plates in a final volume of 0.135 ml.

Data set [11] concerns the target T2, EPHA7 (Homo sapiens, UniProt Q15375).
T2 construct: T7 phage fusion (kinase-tagged phage) or DNA tag for qPCR; made in house; host or cells: E. coli BL21-derived host (T7 phage) or HEK-293
The experiment in a line: Binding to EPHA (kinase competition binding, qPCR). The settings on record: 300 nM, read-out: % Control @ 300 nM. How it is done: as §1

In data set [12] the target is T3, EPHA5 (Homo sapiens, UniProt P54756).
T3 construct: T7 phage fusion (kinase-tagged phage) or DNA tag for qPCR; made in house; host or cells: E. coli BL21-derived host (T7 phage) or HEK-293
The experiment in a line: Binding to EPHA (kinase competition binding, qPCR). The settings on record: 300 nM, read-out: % Control @ 300 nM. How it is done: as §1

The target of data set [13] is T4, EPHA2 (Homo sapiens, UniProt P29317).
T4 construct: T7 phage fusion (kinase-tagged phage) or DNA tag for qPCR; made in house; host or cells: E. coli BL21-derived host (T7 phage) or HEK-293
Description: Binding to EPHA (kinase competition binding, qPCR). The settings on record: 300 nM, read-out: % Control @ 300 nM. How it is done:
as §1

In data set [14] the target is T5, EPHA4 (Homo sapiens, UniProt P54764).
T5 construct: T7 phage fusion (kinase-tagged phage) or DNA tag for qPCR; made in house; host or cells: E. coli BL21-derived host (T7 phage) or HEK-293
Description: Binding to EPHA (kinase competition binding, qPCR). The settings on record: 300 nM, read-out: % Control @ 300 nM. The method, then: as §1

For data set [15], the target named is T6, EPHA8 (Homo sapiens, UniProt P29322).
T6 construct: T7 phage fusion (kinase-tagged phage) or DNA tag for qPCR; made in house; host or cells: E. coli BL21-derived host (T7 phage) or HEK-293
Description: Binding to EPHA (kinase competition binding, qPCR). The settings on record: 300 nM, read-out: % Control @ 300 nM. How it is done:
as §1

The target in data set [16] is T7, EPHA3 (Homo sapiens, UniProt P29320).
T7 construct: T7 phage fusion (kinase-tagged phage) or DNA tag for qPCR; made in house; host or cells: E. coli BL21-derived host (T7 phage) or HEK-293
Description: Binding to EPHA (kinase competition binding, qPCR). To be noted: 300 nM, read-out: % Control @ 300 nM. How it is done: as §1

Data set [17] deals with RPMI-8226. Description: NCI screening panel (SRB). The class given is cell-based. The settings on record: Homo sapiens, RPMI-8226 (Leukemia), 48 h; for CC50: read-out: LC50 (the source's name).
Data set [18] has as its target ERBB2 (Homo sapiens, UniProt P04626). The experiment in a line: Kinase assays, selectivity panel (qPCR). To be noted: read-out: % Control @ 300 nM.
In data set [19] the test system is NCI-H23. The experiment in a line: NCI screening panel (SRB). The data set is classed as cell-based. To be noted: Homo sapiens, NCI-H23 (NSCLC), 48 h; for CC50: read-out: LC50 (the source's name).
Data set [20] is described as follows: Chemical stability in simulated intestinal fluid. The class given is physicochemical. The settings on record: 37° C. The method, then:
For SIF: Dissolve 6.8 g of KH2PO4 into about 500 mL ultrapure water and adjust the solution to a pH 6.8 with 0.1 M NaOH. Dissolve 10 g of trypsin into ultrapure water. Then the two solutions are mixed well and diluted with ultrapure water to 1000 mL.
The working solutions of test compound and control compound chlorambucil are prepared in DMSO at the concentration of 500 μM.
Place 2 μL of working solution of each sample in order into their proper 96-well rack. Add 198 μL of pre-incubated PBS pH 7.4 or simulated intestinal fluid into each vial of the cap-less Sample plate to achieve a final concentration of […]. The assay is performed in duplicate. Seal using a molded PTFE/Silicone plug. Then transfer the Sample plate to the Eppendorf Thermomixer Comfort plate shaker and shake at 37° C. at 1100 RPM. Take one of the glass vials at designated time points including 0, 30, 60, 120 and 240 min. For each time point, the initiation of the reaction is staggered so all time points are terminated with 1000 μL of cold quench solution (acetonitrile containing internal standards (IS, 200 nM Labetalol, 100 nM Alprazolam and 2 μM Ketoprofen) at the same time. Vortex for 1 minute. Centrifuge the samples in plate at 3,220 g for 5 minutes at 4° C. Transfer 100 μL of the supernatant to a new plate. The supernatant may be diluted with 100 μL or 200 μL water according to the LC/MS signal response and peak shape. Mix well and analyze samples using LC/MS/MS.

T5 sequence (P54764 20-986): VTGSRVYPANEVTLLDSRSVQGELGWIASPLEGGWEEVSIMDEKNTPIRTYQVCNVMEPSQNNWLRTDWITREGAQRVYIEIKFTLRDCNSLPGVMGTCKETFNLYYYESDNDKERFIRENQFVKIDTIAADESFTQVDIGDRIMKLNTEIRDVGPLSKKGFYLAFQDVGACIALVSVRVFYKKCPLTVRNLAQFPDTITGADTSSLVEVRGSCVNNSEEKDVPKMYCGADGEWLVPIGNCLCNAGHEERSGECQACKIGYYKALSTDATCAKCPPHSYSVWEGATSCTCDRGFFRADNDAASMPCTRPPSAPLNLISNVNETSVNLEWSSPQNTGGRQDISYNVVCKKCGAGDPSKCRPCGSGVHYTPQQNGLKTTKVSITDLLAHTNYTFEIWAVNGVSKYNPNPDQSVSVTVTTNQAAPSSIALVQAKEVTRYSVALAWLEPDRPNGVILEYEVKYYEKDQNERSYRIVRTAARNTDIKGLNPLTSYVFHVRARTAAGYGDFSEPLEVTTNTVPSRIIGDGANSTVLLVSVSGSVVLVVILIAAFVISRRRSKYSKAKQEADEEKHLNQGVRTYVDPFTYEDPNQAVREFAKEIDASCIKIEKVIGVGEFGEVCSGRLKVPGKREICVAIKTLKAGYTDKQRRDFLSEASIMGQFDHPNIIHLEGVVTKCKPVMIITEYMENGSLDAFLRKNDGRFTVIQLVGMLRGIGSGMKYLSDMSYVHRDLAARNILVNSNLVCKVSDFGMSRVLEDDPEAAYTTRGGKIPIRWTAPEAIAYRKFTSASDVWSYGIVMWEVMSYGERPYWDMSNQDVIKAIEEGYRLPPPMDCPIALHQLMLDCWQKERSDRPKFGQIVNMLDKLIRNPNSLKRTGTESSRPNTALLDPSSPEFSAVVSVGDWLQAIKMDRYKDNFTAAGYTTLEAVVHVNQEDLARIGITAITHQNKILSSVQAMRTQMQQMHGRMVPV
T6 sequence (P29322 28-1005): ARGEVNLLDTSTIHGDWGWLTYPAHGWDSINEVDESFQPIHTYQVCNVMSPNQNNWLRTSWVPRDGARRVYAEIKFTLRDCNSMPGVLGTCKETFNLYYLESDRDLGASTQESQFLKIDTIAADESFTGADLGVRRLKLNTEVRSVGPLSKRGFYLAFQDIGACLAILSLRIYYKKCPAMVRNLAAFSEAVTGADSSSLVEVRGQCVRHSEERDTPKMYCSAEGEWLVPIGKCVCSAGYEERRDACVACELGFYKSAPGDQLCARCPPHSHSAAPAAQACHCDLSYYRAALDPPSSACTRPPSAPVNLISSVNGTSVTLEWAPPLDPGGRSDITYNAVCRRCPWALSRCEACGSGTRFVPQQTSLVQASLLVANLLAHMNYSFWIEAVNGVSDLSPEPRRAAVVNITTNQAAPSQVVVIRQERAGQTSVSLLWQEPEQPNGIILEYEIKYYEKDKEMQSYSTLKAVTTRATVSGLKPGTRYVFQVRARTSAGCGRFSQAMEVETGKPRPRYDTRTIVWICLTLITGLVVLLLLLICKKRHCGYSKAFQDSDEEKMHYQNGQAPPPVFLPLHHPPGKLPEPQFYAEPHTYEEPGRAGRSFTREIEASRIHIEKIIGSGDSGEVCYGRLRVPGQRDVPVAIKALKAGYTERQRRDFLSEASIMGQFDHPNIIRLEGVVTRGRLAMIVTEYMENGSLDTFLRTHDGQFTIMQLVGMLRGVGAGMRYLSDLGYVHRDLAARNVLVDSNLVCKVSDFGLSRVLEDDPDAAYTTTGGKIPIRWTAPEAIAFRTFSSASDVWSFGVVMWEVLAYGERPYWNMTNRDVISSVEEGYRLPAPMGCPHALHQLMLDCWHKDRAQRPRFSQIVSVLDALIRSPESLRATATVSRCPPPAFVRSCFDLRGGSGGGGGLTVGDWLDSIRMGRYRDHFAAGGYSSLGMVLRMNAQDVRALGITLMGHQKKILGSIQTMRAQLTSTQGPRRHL
EGFR (L858R), sequence (P00533 25-1210 L858R): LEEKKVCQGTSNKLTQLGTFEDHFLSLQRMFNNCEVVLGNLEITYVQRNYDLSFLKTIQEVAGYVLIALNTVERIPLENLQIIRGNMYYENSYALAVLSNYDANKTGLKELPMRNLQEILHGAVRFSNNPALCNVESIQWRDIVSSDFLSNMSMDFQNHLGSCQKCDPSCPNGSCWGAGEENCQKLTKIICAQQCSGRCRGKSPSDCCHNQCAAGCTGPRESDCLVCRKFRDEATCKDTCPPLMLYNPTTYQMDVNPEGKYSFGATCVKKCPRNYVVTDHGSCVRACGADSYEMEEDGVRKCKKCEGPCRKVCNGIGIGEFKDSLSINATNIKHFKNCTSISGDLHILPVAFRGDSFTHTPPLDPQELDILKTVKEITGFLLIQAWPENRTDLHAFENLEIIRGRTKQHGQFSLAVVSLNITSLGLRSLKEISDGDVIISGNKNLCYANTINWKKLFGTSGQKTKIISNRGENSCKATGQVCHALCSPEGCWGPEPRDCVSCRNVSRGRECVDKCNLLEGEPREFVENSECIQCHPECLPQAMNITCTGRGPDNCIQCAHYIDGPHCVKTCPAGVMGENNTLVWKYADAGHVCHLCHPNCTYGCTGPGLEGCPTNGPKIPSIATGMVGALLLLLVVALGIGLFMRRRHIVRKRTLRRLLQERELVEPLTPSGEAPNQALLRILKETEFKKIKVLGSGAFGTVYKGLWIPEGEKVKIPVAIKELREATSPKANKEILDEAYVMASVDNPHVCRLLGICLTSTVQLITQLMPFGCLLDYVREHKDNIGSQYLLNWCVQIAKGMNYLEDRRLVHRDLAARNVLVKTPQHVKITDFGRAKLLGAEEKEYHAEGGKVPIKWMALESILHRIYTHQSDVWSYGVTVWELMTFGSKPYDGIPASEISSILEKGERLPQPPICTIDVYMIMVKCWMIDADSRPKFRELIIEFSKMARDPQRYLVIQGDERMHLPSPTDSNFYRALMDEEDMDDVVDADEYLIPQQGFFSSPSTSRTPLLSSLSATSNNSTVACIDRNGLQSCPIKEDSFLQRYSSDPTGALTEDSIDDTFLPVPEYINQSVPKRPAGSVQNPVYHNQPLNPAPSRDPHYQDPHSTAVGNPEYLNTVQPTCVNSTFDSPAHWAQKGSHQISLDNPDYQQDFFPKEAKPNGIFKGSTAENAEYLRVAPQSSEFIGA
T3 sequence (P54756 25-1037): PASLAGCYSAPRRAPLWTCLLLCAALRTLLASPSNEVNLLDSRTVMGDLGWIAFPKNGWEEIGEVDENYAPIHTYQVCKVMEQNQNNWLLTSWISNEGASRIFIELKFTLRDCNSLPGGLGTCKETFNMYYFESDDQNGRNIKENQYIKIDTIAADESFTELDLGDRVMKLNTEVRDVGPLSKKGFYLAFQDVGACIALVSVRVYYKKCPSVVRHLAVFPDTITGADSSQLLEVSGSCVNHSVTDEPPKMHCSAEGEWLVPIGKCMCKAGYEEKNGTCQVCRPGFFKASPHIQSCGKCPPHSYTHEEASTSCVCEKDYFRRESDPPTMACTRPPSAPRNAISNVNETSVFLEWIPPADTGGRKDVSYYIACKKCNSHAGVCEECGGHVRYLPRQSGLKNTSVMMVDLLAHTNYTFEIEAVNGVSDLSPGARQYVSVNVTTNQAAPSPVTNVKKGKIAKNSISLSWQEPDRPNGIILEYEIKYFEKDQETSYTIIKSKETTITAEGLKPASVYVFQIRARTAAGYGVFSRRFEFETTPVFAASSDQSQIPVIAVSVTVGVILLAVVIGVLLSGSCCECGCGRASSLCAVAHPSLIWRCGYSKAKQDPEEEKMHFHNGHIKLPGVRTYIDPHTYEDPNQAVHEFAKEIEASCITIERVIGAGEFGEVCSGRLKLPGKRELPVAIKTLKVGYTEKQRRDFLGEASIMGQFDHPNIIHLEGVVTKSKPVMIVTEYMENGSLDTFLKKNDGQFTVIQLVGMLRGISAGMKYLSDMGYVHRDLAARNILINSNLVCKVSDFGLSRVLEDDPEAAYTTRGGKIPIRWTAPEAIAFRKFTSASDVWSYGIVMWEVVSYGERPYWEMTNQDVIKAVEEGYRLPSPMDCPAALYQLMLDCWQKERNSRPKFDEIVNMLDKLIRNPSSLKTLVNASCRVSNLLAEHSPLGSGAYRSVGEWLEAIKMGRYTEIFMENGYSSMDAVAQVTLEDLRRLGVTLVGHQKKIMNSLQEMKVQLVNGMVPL
T7 sequence (P29320 21-983): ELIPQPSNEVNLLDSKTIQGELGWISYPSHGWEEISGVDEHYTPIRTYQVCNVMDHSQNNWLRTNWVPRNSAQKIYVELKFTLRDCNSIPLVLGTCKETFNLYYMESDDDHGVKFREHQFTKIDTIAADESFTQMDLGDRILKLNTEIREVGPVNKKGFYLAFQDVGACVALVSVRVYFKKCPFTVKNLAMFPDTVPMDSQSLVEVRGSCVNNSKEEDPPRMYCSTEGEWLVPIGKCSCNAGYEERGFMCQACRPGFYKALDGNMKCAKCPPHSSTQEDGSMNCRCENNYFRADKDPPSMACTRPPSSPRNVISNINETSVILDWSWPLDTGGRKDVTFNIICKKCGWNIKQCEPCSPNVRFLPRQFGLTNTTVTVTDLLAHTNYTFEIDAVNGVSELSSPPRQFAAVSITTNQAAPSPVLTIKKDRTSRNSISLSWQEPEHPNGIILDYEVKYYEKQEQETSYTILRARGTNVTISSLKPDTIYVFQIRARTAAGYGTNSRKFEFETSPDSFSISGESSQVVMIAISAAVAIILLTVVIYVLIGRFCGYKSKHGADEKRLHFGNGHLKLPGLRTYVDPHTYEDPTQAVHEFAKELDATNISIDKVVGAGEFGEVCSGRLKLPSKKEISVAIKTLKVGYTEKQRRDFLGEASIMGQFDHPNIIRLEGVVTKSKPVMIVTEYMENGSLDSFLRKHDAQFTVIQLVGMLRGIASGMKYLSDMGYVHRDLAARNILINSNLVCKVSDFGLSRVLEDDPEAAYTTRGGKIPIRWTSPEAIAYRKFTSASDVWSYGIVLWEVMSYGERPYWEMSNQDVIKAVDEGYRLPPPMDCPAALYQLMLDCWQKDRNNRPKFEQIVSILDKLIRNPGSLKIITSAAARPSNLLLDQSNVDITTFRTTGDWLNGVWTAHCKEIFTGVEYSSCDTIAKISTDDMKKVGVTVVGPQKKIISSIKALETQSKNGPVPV

Consider `CN(C)C/C=C/C(=O)Nc1cc2c(Nc3ccc(F)c(Cl)c3F)ncnc2cc1OCCOC(F)F.O=C(O)/C=C\C(=O)O.O=C(O)/C=C\C(=O)O` [Example I-9-MA, (E)-N-[4-(3-chloro-2,4-difluoro-anilino)-7-[2-(difluoromethoxy)ethoxy]quinazolin-6-yl]-4-(dimethylamino)but-2-enamide di-maleic acid salt], for which the 50% growth inhibitory concentration (GI50) was found to be 1170 nM in data set [1]; 747 nM in [2]; 483 nM in data set [3]; 944 nM in [4]; 1440 nM in data set [6]; 1690 nM in data set [8]. Besides, the concentration for 50% growth inhibition (GI50) is under 10 nM in data set [9], 1290 nM in data set [17] and 1380 nM in [19]. Also, the CC50 was determined as 27200 nM in [1]; 27300 nM in data set [2]; 22400 nM in data set [3]; 4910 nM in data set [4]; 11000 nM in [6]; 32200 nM in data set [8]. Further, the CC50 in data set [9] is 88100 nM; in [17], over 100000 nM; in [19] it was 15400 nM. For the same molecule, the “Remaining Percentage (%) after 60 min” value in data set [5] is listed as 30.53%. This molecule also came in with a half-life at 1 μM in data set [5] of 35.2 min. Moreover, in [5], the microsomal CLint at 1 μM was found to be 39.4 µL/min/mg. The remaining activity at 0.3 µM in data set [7] and in data set [18] was 0% in each case. Further, the remaining binding at 0.3 µM is 34% in data set [10]; 56% in [11]; 51% in data set [12]; 92% in data set [13]; 51% in data set [14]; 40% in [15]. In data set [16], the remaining binding at 0.3 µM came out at 46%.
On to `O=C(/C=C/CN1CCCCC1)Nc1cc2c(Nc3ccc(F)c(Cl)c3F)ncnc2cc1OCCOC(F)F.O=C(O)/C=C\C(=O)O.O=C(O)/C=C\C(=O)O` [Example I-10-MA, (E)-N-[4-(3-chloro-2,4-difluoro-anilino)-7-[2-(difluoromethoxy)ethoxy]quinazolin-6-yl]-4-(1-piperidyl)but-2-enamide di-maleic acid salt], for which the GI50 in [1] was determined as 1800 nM; in data set [2] it was 1250 nM; in data set [3] it was 1540 nM; in data set [4], 1340 nM; in data set [6], 1820 nM; in data set [8] it was 2470 nM. In addition, the results for the 50% growth inhibitory concentration (GI50) in data set [9], in data set [17] and in data set [19] were 81.4 nM, 1640 nM and 2090 nM, respectively. In addition, the CC50 in data set [1] was 28600 nM; in [2] it was 41700 nM; in [3] it was 88900 nM; in data set [4], 5490 nM; in data set [6], over 100000 nM; in data set [8], 36200 nM. For the same molecule, the CC50 was over 100000 nM in data set [9], 58900 nM in data set [17] and over 100000 nM in data set [19]. In addition, in data set [5], the “Remaining Percentage (%) after 60 min” value was determined as 48.95%. The same molecule yielded a half-life at 1 μM in data set [5] of 57.8 min. Also, the microsomal CLint at 1 μM in [5] came out at 24 µL/min/mg. The remaining activity at 0.3 µM in data set [7] amounted to 0.4%; in data set [18] it was 0.05%. Moreover, the remaining binding at 0.3 µM in data set [10] came out at 24%; in data set [11] it was 40%; in [12], 49%; in data set [13], 80%; in [14], 50%; in data set [15] it was 33%. Further, the remaining binding at 0.3 µM in data set [16] was found to be 45%.
With `CN(C)C/C=C/C(=O)Nc1cc2c(Nc3cccc(Cl)c3F)ncnc2cc1OCCOC(F)F.O=C(O)/C=C\C(=O)O` [Example I-5-MA, (E)-N-[4-(3-chloro-2-fluoro-anilino)-7-[2-(difluoromethoxy)ethoxy]quinazolin-6-yl]-4-(dimethylamino)but-2-enamide dimaleic acid salt], the figures for the “Remaining Percentage (%) in Simulated Intestinal Fluid” value in data set [20] (120 min) and in data set [20] (240 min) were 97.51% and 91.51%, respectively.
Regarding `CN(C)C/C=C/C(=O)Nc1cc2c(Nc3ccc(F)c(Cl)c3)ncnc2cc1O[C@H]1CCOC1` [Afatinib, reference compound], the “Remaining Percentage (%) in Simulated Intestinal Fluid” value in [20] (120 min) is given as 104.51%; in data set [20] (240 min), 104.31%.
